# Data: patent US20140206678A1, “INHIBITORS OF MTOR KINASE AS ANTI -VIRAL AGENT” (KADMON CORPORATION, LLC, priority 2011, published 2014)
# Key:
# HCMV = assay: GFP marker expression from the HCMV genome (percentage of infected cells); type: cell-based, human cytomegalovirus; conditions: 24 hpi; 250 nM
# Protocol: FIG. 2. […] Serum-starved confluent fibroblasts were infected with HCMV at a multiplicity of 3 PFU/cell. […] Control cultures received the vehicle in which Torin1 was dissolved (NT). At 2 hpi cells were harvested, and cell-associated viral DNA was quantified by real-time PCR analysis. Error bars represent the standard errors of the means from two independent experiments performed in duplicate. […] The level of IE1 was determined at 6 hpi by a Western blot assay using an IE1-specific monoclonal antibody. The image is representative of two independent experiments. […] The expression of a GFP marker gene present in the viral genome was monitored at 24 h after infection in the presence or absence of drug.
# eIF4F complex and 4EBP1 = assay: m7GTP-Sepharose cap-analog binding (eIF4F complex) in HCMV-infected fibroblasts; type: cell-based, human; conditions: rapamycin 20 nM, Torin1 250 nM
# Protocol: FIG. 4. Rapamycin-resistant mTOR activity is required for 4EBP1 phosphorylation and eIF4F complex integrity during HCMV infection. Serum-starved confluent human fibroblasts were infected with HCMV at a multiplicity of 3 PFU/cell. […] (A) At 48 hpi the phosphorylation status of mTORC1 targets was assessed by Western blot assay by using antibodies to phosphorylated targets (4EBP1-PT^37/46 and rpS6-PS^235/6) and total proteins. Tubulin was assayed as a loading control. (B) Same as above (A) except that cells were harvested at the indicated times. (C and D) After mock infection (M) or infection with HCMV (WT) at a multiplicity of 3 PFU/cell, cultures were harvested at the indicated times. Equivalent amounts of protein from each sample were incubated with m^7GTP-Sepharose, and the isolated protein complexes were analyzed by Western blotting using the indicated antibodies to the eIF4F complex and 4EBP1. In all cases the results are representative of at least two independent experiments. lys, lysate.
# The phosphorylation status of 4EBP1 regulates cap-dependent protein translation. Hypophosphorylated 4EBP1 binds to eIF4E and inhibits the formation of the eIF4F complex, while the phosphorylation of 4EBP1 inhibits its interaction with eIF4E. […]
# γHV68 = γHV68 replication in MEFs, TCID50; type: cell-based, murine gammaherpesvirus 68; conditions: 6 days post infection, rapamycin 20 nM, Torin1 250 nM
# 4EBP1 = 4EBP1 phosphorylation in HSV-1-infected MEFs (Western blot); type: cell-based, mouse; conditions: 8 hpi, 3 PFU/cell
# Protocol: FIG. 8. Rapamycin-resistant mTOR activity is required for lytic replication by representative alpha- and gamma-herpesviruses. (A) Confluent serum-starved MEFs were infected at a multiplicity of 0.05 PFU/cell with HSV-1 or γHV68. The amount of virus in cell-free supernatants was determined by the TCID50 method at 72 hpi for HSV-1 (left) and at 6 days post infection for γHV68 (right). Black bars represent vehicle-treated samples (N) (DMSO), gray bars represent rapamycin-treated samples (R) (20 nM), and white bars represent Torin1-treated samples (T) (250 nM). The error bars represent the standard errors of the means from at least two independent experiments. (B) Confluent MEF monolayers were infected with HSV-1 at a multiplicity of 3 PFU/cell. Infected cell lysates were harvested at 8 hpi, and equal amounts of protein were analyzed by Western blotting. (C) WT or 4EBP1-null MEFs were infected with HSV-1 at a multiplicity of 0.05 PFU/cell. The amount of cell-free virus present in the supernatant at 72 hpi was quantified by the TCID50 method. The error bars represent the standard errors of the means from two independent experiments.
# cells = conditions: concentrations of up to 500 nM; previous reports; cited from earlier work
smiles,measurement,setting,value
CCC(=O)N1CCN(c2ccc(-n3c(=O)ccc4cnc5ccc(-c6cnc7ccccc7c6)cc5c43)cc2C(F)(F)F)CC1 [Torin1],percentage of cells expressing GFP marker protein,HCMV,did not alter
same,association of 4EBP1 with m7GTP-Sepharose cap analog,eIF4F complex and 4EBP1,substantially increased association
same,association of eIF4G and eIF4A with the cap analog,eIF4F complex and 4EBP1,reduced association
same,γHV68 replication,γHV68,inhibited
same,phosphorylation of 4EBP1 during HSV-1 infection,4EBP1,inhibited
same,cell killing,cells,does not kill cells
